# Assay results: patent US7556957B2, “Coronavirus-like particles comprising functionally deleted genomes” (Stichting voor de Technische Wetenschappen, priority 2001, dated 2009)
# Where no end group is shown, it is not given here.
# Columns and labels:
# [1] = tested on: MHV-A59 spike mediated cell-cell fusion in LR7 cells; test: Cell-cell fusion inhibition plaque assay; type: cell-based, mouse hepatitis virus (MHV) strain A59
# Description: FIG. 12: Inhibition of cell-cell fusion by HR2 peptide. After inoculation of parallel cultures of LR7, cells with MHV-A59 cells were overlaid with agar medium containing different concentrations of HR2 peptide and plaques were counted the following day.
# (§1) The potency of the HR2 peptide in inhibiting viral infection was determined using the recombinant MHV-EFLM expressing the firefly luciferase. Confluent monolayers of LR7 cells in 96-well plates were inoculated at 37° C. in DMEM at a multiplicity of infection of 5 for 1 hour in the presence of varying concentrations of peptide ranging from 0.4-50 μM. After 1 hour, cells were washed with DMEM and medium was replaced by peptide-free DMEM. At 5 hours post-infection cells were lysed for 15 minutes at RT in 50 μl Lysis buffer, according to the manufacturer's protocol (Luciferase Assay System, Promega). Upon mixing of 10 μl cell lysate with 40 μl substrate, luciferase activity was measured immediately using a Wallace Betaluminometer. […]
# [2] = tested on: MHV-EFLM infection of LR7 cells; test: Virus-cell entry inhibition assay with luciferase-expressing MHV-EFLM; type: cell-based, mouse hepatitis virus (MHV) strain A59; conditions: peptide concentration 50 μM
# Description: FIG. 11: Inhibition of MHV infection by the HR2 peptide. LR7 cells were inoculated with the virus MHV-EFLM in the presence of different concentrations of HR2 peptide or, as a control, a peptide corresponding to amino acids 1003-1048 of the viral S protein. After one hour of inoculation, cells were washed and incubated further in the absence of peptide. To evaluate the success of the infection, cells were analyzed at 4 hours post-infection for luciferase expression. In the figure luciferase activity is plotted against the different peptide concentrations used.
# as §1
sequence,measurement,setting,value
GPIEGRDLSLDFEKLNVTLLDLTYEMNRIQDAIKKLNESYINLKE [HR2 peptide],formation of plaques (cell-cell fusion),[1]; 0.08 μM HR2 peptide in agar overlay,only tiny plaques
same,formation of plaques (cell-cell fusion),[1]; HR2 peptide in agar overlay at concentrations of up to 0.4 μM,completely abolished
same,inhibition of viral infection (entry),[2],inhibited virtually completely
